Data taken from patent US20240391872A1, “PHENOXY-ACETYL-THIOUREIDO-BENZENESULFONAMIDE DERIVATIVES, AND THEIR USES” (priority 2021, published 2024).
“Also recorded” adds a separate entry of the source. Read-outs that look alike come from different tables or passages of the source.

Legend:
[1] = tested on: Vero E6 cells; details: cited from earlier work
[2] = infected non-human primates; cited from earlier work
[3] = tested on: SARS-CoV-2; experiment: microbe, parasite or virus in culture; assay type: cell-based; details: for IC50: SARS-CoV-2 MOI 0.01, 48 h, vRNA RT-qPCR; for antiviral activity (relative SARS-CoV-2 vRNA levels): MOI 0.01, 48 h, indicated concentrations
[4] = Cytotoxicity, LDH release assay; assay type: cell-based
[5] = tested on: SARS-CoV-2; experiment: microbe, parasite or virus in culture; assay type: cell-based
[6] = tested on: SARS-CoV-2; assay type: cell-based; details: Caco2 cells, 10 μM, MOI 0.01, 48 h
[7] = tested on: SARS-CoV-2; experiment: SARS-CoV-2 infection of human airway epithelia (HAE); assay type: cell-based; details: 10 μM; for viral RNA by RT-qPCR: wild type CoV2 MOI 0.01, 4 days
Procedure: (§1) FIG. 33 HAE cells were either untreated (Mock) or treated with 10 μM of RG10 and then infected with SARS-CoV-2 mNeonGreen virus at MOI 0.1. After 4 days, cells were fixed and stained for CoV2 spike protein and actin filaments (phalloidin staining). Z-stack images were acquired using a confocal microscope and processed using ImageJ to produce an average intensity image for each individual channel. Scale bar=20 μm.
as §1, with “34” for “33”
FIG. 35 3D representation of the images from [FIG. 33] and [FIG. 34] using the Imaris software. Scale bar=20 μm.
FIG. 37 Same samples from [FIG. 36] were processed to measure by RT-qPCR, relative vRNA levels normalized by Rpl27 RNA expression. The bars are means+/−SD from two pooled independent experiments. Student's t-test **p value<0.01; ***p value<0.005; ****p value<0.001.
FIG. 42 HAE cells were treated with 10 μM of RG10, RG10b, and Remdesivir and then infected for 4 days with CoV2 at MOI 0.01. Cells were then processed for RNA extraction and RT-qPCR experiments. […] Student's t-test *p value<0.05 **p value<0.01; ***p value<0.005.
Huh7.5.1 (Zhong J. et al. (2005) Proceedings of the National Academy of Sciences of the United States of America 102:9294-9), Vero E6 (ECACC #85020206), Caco2, and HEK 293T cells were cultured in DMEM GlutaMAX (Thermo Fisher Scientific) supplemented with 10% fetal calf serum and penicillin-streptomycin (500 μg/ml; GIBCO). HAE cells (Epithelix) were cultured in Mucilair media at the basal side and maintained at air-liquid interface. Apical washes were performed each 2-3 days by temporarily adding Mucilair media for 30 minutes. All cell types were maintained at 37° C. in a 5% CO2 atmosphere.
Cells were lysed and RNA immediately extracted using the Luna Cell Ready Lysis Module according to the manufacturer's protocol (New England Biolabs). RT-qPCR on extracted RNA was performed using the Luna One-Step RT-qPCR Kit (New England Biolabs). The samples were analyzed using a Lightcycler 480 instrument (Roche) using the following thermal cycle: Reverse transcription step at 55° C. for 15 min, initial denaturation at 95° C. for 2 min. Then, 40 cycles were programmed consisting of 15 s of denaturation at 95° C. followed by 30 s of annealing/extension at 55°. Fluorescent data collection was performed at the end of each cycle. SARS-CoV-2 viral RNA was detected using the N1 probe that targets specifically the N protein. […]

[8] = tested on: ZIKV; assay type: cell-based, Zika virus; details: MOI 0.3, 24 h
[9] = tested on: HCoV-229E-Renilla; assay type: cell-based, human coronavirus 229E
[10] = tested on: SARS-CoV-2; experiment: Time-of-addition experiment, CoV2 in Vero E6 cells; assay type: cell-based
[11] = tested on: sXBP-1; experiment: ER stress mediator RNA levels by RT-qPCR in Huh7.5.1 cells; assay type: cell-based, human
[12] = tested on: endoplasmic reticulum; experiment: Confocal imaging of ER morphology and compound localization in Huh7.5.1 cells; assay type: cell-based, human; details: 50 μM, 6 h, Calnexin staining
Procedure: FIG. 15 Huh7.5.1 cells were treated with 25 µM of RG10-Rhod or free Rhodamine for 3 h. Cells were fixed and stained using an anti-Calnexin antibody as a marker for ER membranes and DAPI for nuclear staining. One channel corresponds to rhodamine fluorescence. The micrographs show the individual channels and merge that have been acquired using confocal microscopy and processed using ImageJ. Scale bar=10 μm.
FIG. 17 Huh.7.5.1 cells were treated with 50 μM of RG10 for 6 h and then were processed for confocal imaging.
Cells were then fixed and stained using an anti-Calnexin antibody as a marker for ER membranes and DAPI for nuclear staining. The micrographs show the individual channels and merge that have been acquired using confocal microscopy and processed using ImageJ. Scale bar=10 μm.
Cells grown on #1.5 glass coverslips were fixed with 4% PFA for 15 min. Cells were then permeabilized with 0.1% Triton X100 and saturated with 0.2% BSA. Then, primary antibody incubation was performed for 1 h. After a series of PBS washes, secondary antibodies were added for 30 min. DAPI staining was performed for 10 min to obtain nuclear staining. Coverslips were mounted on glass slides using Mowiol mounting media. Images were acquired using a Leica SP5 confocal microscope.

[13] = tested on: N-mRuby3 CoV2; experiment: Live cell imaging and tracking of N-mRuby3 CoV2 particles in Huh7.5.1 cells; assay type: cell-based, SARS-CoV-2
[14] = tested on: sXBP1; experiment: sXBP1 RNA levels in HAE cells infected with CoV2; assay type: cell-based, human; details: 10 μM, CoV2 MOI 0.01, 4 days
Procedure: FIG. 36 HAE cells were treated with 10 μM of RG10 and Remdesivir and then infected with wild type CoV2 at MOI 0.01 for 4 days. Graphs show relative sXBP1 RNA levels normalized with GAPDH RNA expression.
Cells were lysed and RNA immediately extracted using the Luna Cell Ready Lysis Module according to the manufacturer's protocol (New England Biolabs). RT-qPCR on extracted RNA was performed using the Luna One-Step RT-qPCR Kit (New England Biolabs). The samples were analyzed using a Lightcycler 480 instrument (Roche) using the following thermal cycle: Reverse transcription step at 55° C. for 15 min, initial denaturation at 95° C. for 2 min. Then, 40 cycles were programmed consisting of 15 s of denaturation at 95° C. followed by 30 s of annealing/extension at 55°. Fluorescent data collection was performed at the end of each cycle. SARS-CoV-2 viral RNA was detected using the N1 probe that targets specifically the N protein. For normalization, primers targeting Rpl27 or GAPDH were utilized.

[15] = Pharmacokinetics experiments in mice; assay type: in vivo; details: blood
From the text: (§2) The low potency of RG10 in HAE could be attributed to its weak stability and therefore, the inventor designed a novel RG10 derivative, which the inventor called RG10b. This derivative harbors a modification shielding a molecular weakness present in RG10.

[16] = Innocuity assessment in mice (weight); assay type: in vivo; details: concentrations up to 10 mg/kg
From the text: Two mice were used per condition.
as §2

[17] = Severe acute respiratory syndrome coronavirus 2, Vero C1008, Vero E6 cells
[18] = Huh 7.5.1 cells, 10 μM, MOI 0.01, 48 h
[19] = Huh7.5.1 cells, 10 μM, MOI 0.5, 48 h
[20] = Huh 7.5.1 cells, 25 μM, MOI 0.01, 48 h

For CCN(CCO)CCCC(C)Nc1ccnc2cc(Cl)ccc12 (stereo not drawn) [Hydroxychloroquine], the EC50 ([1]; Vero E6 cells) is given as roughly 2 µM and the viral loads [2] is given as “does not decrease the viral loads”.
With COc1ccc(OCCNC(=S)Nc2ccc(S(=O)(=O)NC3CCCCC3)cc2)cc1 [RG10] the IC50 [3, 17] was 1.55 µM, the “antiviral activity (relative SARS-CoV-2 vRNA levels)” value ([3]; Vero E6 cells) was “potent antiviral molecule with similar activity levels as Remdesivir; also recorded: high CoV2 antiviral activity” and the cytotoxicity [4] was “did not show cytotoxicity at working concentrations”. For the same compound, the cytotoxicity ([4]; LDH release, working concentrations) was “very low cytotoxicity compared to Latrunculin, jasplakinolide and cytocalasin D”, the “CoV2 antiviral activity (relative vRNA levels)” value [5, 18] was “high CoV2 antiviral activity” and the “neosynthesized Spike protein, Western blot” value [5, 19] was “could barely be detected”. The “viral RNA synthesis, dsRNA immunolabeling” value [5, 19] was “prevents viral RNA synthesis”, the “viral protein synthesis, microscopy and flow cytometry” value [5, 19] was “prevent viral protein synthesis” and the “potency at high multiplicity of infection” value ([5]; Huh7.5.1 cells, 10 μM, indicated MOI, 48 h) was “retained potency at high multiplicity of infection (MOI) similar to Rem”. The EC50 ([5]; Severe acute respiratory syndrome coronavirus 2, Huh-7.5.1, potency in Huh7.5.1 cells (FIG. 3)) was roughly 1.5 µM, the “CoV2 antiviral activity (relative vRNA levels)” value [6] was “high CoV2 antiviral activity” and the HAE viability ([7]; 4 days) was “viability was similar”. For the same compound, the “viral infection, fluorescent mNeonGreen virus” value ([7]; MOI 0.1, 4 days) was “decreases viral infection”, the “viral RNA by RT-qPCR” value [7] was “decreased by RG10, although the extent of the decrease was much lower than Remdesivir treatment” and the “antiviral activity against ZIKV (relative vRNA levels)” value ([8]; Vero E6, 10 μM) was “no detectable effect on ZIKV; also recorded: unable to inhibit ZIKV replication”. The “antiviral activity against HCoV-229E” value [9] was “significant antiviral activity, although potency was lower”, the “antiviral activity, vRNA levels, RG10 Pre” value ([10]; Vero E6, MOI 0.1, 10 μM during the first 4 h of infection and washed-out) was “no antiviral activity when incubated only during virus entry” and the “vRNA expression levels, RG10 Post” value ([10]; Vero E6, MOI 0.1, 10 μM starting at 4 h post-infection) was “significantly decreased vRNA expression levels”. The “viral N protein and dsRNA levels by flow cytometry, entry steps” value ([10]; Vero E6, MOI 0.1, 10 μM, 24 h) was “some inhibition was also observed at the entry steps”, the “viral N protein and dsRNA levels by flow cytometry, post entry” value ([10]; Vero E6, MOI 0.1, 10 μM, 24 h) was “strong antiviral activity post entry” and the “sXBP-1 RNA levels” value ([11]; 10 μM) was “no difference was observed between RG10 and RG7”. The “sXBP-1 RNA levels” value ([11]; 50 μM, 6 h) was “enriched”, the ER morphology [12] was “perturbed ER morphology” and the “mean particle speed of virus” value [13] was “slowed down virus movement to the ER”. For the same compound, the “sXBP-1 RNA levels” value [14] was “upregulated”.
In the case of O[C@@H](CS)[C@@H](O)CS [DTT, reference compound], the “sXBP-1 RNA levels” value ([11]; 1 mM, 6 h, positive control of ER stress) is reported as “enriched”.
With Tunicamycin [reference compound] the “antiviral activity against CoV2 (relative vRNA levels)” value [3] was “active against both viruses” and the “antiviral activity against ZIKV (relative vRNA levels)” value ([8]; Vero E6, 1 μM) was “active against both viruses”.
For COc1ccc(N2CCC(NC(=S)Nc3ccc(S(=O)(=O)NC4CCCCC4)cc3)C2)cc1 (stereo not drawn) [RG10b], the EC50 ([3]; Severe acute respiratory syndrome coronavirus 2, Vero C1008, Vero E6 cells, CoV2 48 h (FIGS. 38 and 39)) was less than 1 µM, the IC50 [3, 17] was roughly 0.99 µM and the “antiviral activity (relative SARS-CoV-2 vRNA levels)” value ([3]; Vero E6 cells) was “more potent than RG10”. For the same compound, the “viral RNA by RT-qPCR” value [7] was “more potent than RG10, showing antiviral activity similar to Remdesivir”, the “half-life relative to RG10” value [15] was “more than 3 fold” and the half-life ([15]; mouse, read-out: pharmacokinetic half-life / stability in vivo) was greater than 2 h. For the same compound, the “innocuity / toxicity in mice” value [16] was “well supported by mice at concentrations up to 10 mg/kg; also recorded: no toxicity observed”.
For COc1ccc(N2CCC(NC(=S)Nc3ccc(S(=N)(=O)NC4CCCCC4)cc3)C2)cc1 (stereo not drawn) [RG27-1], the “antiviral activity (relative SARS-CoV-2 vRNA levels)” value [5, 18] was “cannot be observed” and the “antiviral activity (relative SARS-CoV-2 vRNA levels)” value [5, 20] was “harbor also an antiviral activity”.
In the case of NC(=O)c1nc(F)c[nH]c1=O [favipiravir], the potency in vitro ([1]; in vitro) is given as “very low potency in vitro”.
For COc1ccc(N2CCCC(NC(=S)Nc3ccc(S(=O)(=O)NC4CCCCC4)cc3)C2)cc1 (stereo not drawn) [RG27-8], the “antiviral activity (relative SARS-CoV-2 vRNA levels)” value [5, 18] was “cannot be observed” and the “antiviral activity (relative SARS-CoV-2 vRNA levels)” value [5, 20] was “harbor also an antiviral activity”.
